# Measurements published in patent US20020019395A1, “Indalone and benzimidazolone inhibitors of factor Xa” (priority 2000, published 2002).
# pIC50: −log10 of the molar value.
# System: KALLIKREIN
# Assay: kallikrein protease inhibition assay
# Assay type: biochemical
# Conditions: not given
row,Structure (SMILES),pIC50
1,CC(=N)N1CCC(Oc2ccc3c(c2)n(Cc2ccc4ccc(C(=N)N)cc4c2)c(=O)n3CC(=O)OCC(C)C)CC1 [Example 12],5.87
2,CC(=N)N1CCC(Oc2ccc3c(c2)n(Cc2ccc4ccc(C(=N)N)cc4c2)c(=O)n3C)CC1 [Example 6],6.23
3,CC(=N)N1CCC(Oc2ccc3[nH]c(=O)n(Cc4ccc5ccc(C(=N)N)cc5c4)c3c2)CC1 [Example 4],6.29
4,Cn1c(=O)n(Cc2ccc3ccc(C(=N)N)cc3c2)c2cc(OC3CCN(C(=N)N)CC3)ccc21 [Example 7],6.21

# Target: prothrombinase complex (Homo sapiens, UniProt P00742)
# Assay: prothrombinase inhibition assay (IIASE), plasma free system
# Assay type: biochemical
# Conditions: factor Xa 0.5 nM, factor Va 2 nM, phospholipid, Chromozym TH
# Experimental: (§1) The compounds of the present invention are dissolved in buffer to give solutions containing concentrations such that assay concentrations range from about 0 to about 100 μM. In the assays for thrombin, prothrombinase and factor Xa, a synthetic chromogenic substrate is added to a solution containing test compound and the enzyme of interest and the residual catalytic activity of that enzyme is determined spectrophotometrically. The IC50 of a compound is determined from the substrate turnover. The IC50 is the concentration of test compound giving about 50% inhibition of the substrate turnover.
# The prothrombinase inhibition assay was performed in a plasma free system with modifications to the method described by Sinha, U. et al., Thromb. Res., 75, 427-436 (1994). Specifically, the activity of the prothrombinase complex was determined by measuring the time course of thrombin generation using the p-nitroanilide substrate Chromozym TH. The assay consists of preincubation (5 minutes) of selected compounds to be tested as inhibitors with the complex formed from factor Xa (0.5 nM), factor Va (2 nM), phosphatidyl serine:phosphatidyl choline (25:75, 20 μM) in 20 mM Tris.HCl buffer, pH 7.5, containing 0.15 M NaCl, 5 mM CaCl2 and 0.1% bovine serum albumin. Aliquots from the complex-inhibitor mixture were added to prothrombin (1 nM) and Chromozym TH (0.1 mM). The rate of substrate cleavage was monitored at 405 nm for two minutes. Eight different concentrations of inhibitor were assayed in duplicate. A standard curve of thrombin generation by an equivalent amount of untreated complex was used for determination of percent inhibition.
# Chain of prothrombinase complex (P00742 235-488 limits assumed): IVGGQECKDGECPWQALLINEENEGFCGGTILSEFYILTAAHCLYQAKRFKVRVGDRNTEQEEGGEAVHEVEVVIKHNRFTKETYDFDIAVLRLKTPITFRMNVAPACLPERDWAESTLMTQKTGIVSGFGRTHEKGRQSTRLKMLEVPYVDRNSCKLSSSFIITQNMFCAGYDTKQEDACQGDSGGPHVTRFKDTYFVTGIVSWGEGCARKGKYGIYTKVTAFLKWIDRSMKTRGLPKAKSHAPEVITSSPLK
# Chain of prothrombinase complex (P00742 41-179 partner limits assumed): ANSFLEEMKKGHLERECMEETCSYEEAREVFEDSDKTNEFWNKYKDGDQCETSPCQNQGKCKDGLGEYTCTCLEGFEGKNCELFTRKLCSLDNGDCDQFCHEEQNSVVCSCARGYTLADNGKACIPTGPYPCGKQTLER
# Chain of prothrombinase complex (P12259 29-737 partner limits assumed): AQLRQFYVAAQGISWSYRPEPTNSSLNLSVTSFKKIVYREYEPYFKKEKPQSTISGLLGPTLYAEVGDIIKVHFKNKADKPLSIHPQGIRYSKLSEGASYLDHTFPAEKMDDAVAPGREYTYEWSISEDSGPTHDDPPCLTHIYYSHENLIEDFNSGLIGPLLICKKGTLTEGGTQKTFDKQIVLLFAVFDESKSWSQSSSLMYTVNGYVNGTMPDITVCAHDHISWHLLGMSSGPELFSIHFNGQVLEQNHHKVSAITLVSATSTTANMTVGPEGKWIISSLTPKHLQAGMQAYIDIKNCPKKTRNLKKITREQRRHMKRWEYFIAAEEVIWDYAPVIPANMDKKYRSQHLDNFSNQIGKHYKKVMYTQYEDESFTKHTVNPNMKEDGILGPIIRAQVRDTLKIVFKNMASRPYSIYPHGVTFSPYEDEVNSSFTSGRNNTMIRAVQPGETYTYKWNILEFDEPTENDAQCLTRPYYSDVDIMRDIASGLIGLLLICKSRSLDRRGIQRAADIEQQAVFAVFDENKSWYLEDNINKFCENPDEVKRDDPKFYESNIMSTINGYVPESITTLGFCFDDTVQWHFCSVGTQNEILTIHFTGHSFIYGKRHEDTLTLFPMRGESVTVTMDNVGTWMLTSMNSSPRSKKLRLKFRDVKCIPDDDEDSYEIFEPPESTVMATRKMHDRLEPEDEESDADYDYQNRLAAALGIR
# Chain of prothrombinase complex (P12259 1574-2224 partner limits assumed): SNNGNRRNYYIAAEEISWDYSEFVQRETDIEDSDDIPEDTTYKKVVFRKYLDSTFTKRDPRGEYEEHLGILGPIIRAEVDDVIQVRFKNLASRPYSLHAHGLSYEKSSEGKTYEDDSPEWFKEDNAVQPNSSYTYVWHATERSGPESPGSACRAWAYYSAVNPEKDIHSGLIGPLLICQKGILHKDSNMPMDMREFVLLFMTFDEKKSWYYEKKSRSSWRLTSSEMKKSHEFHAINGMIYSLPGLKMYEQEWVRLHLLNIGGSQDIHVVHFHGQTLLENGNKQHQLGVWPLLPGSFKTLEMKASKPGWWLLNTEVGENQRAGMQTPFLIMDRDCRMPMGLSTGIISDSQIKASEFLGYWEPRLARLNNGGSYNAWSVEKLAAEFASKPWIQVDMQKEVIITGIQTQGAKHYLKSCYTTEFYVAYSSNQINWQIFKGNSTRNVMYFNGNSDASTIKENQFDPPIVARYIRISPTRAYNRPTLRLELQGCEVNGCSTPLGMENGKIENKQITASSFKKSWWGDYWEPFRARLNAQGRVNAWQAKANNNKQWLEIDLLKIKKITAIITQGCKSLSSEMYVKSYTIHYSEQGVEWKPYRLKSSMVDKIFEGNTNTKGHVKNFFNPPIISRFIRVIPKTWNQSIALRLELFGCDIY
row,Structure (SMILES),pIC50
1,CCn1c(Cn2c(=O)[nH]c3ccc(OC4CCN(C(=N)N)CC4)cc32)cc2ccc(C(=N)N)cc21 [Example 18],6.33
2,CCn1c(Cn2c(=O)[nH]c3ccc(OC4CCN(C(C)=N)CC4)cc32)cc2ccc(C(=N)N)cc21 [Example 17],6.28
3,CC(=N)N1CCC(Oc2ccc3c(c2)n(Cc2ccc4ccc(C(=N)N)cc4c2)c(=O)n3CC(=O)OCC(C)C)CC1 [Example 12],6.99
4,CC(=N)N1CCC(Oc2ccc3c(c2)n(Cc2ccc4ccc(C(=N)N)cc4c2)c(=O)n3C)CC1 [Example 6],6.37
5,CC(=N)N1CCC(Oc2ccc3[nH]c(=O)n(Cc4ccc5ccc(C(=N)N)cc5c4)c3c2)CC1 [Example 4],7.65
6,Cn1c(=O)n(Cc2ccc3ccc(C(=N)N)cc3c2)c2cc(OC3CCN(C(=N)N)CC3)ccc21 [Example 7],6.40

# Target: APC (Homo sapiens, UniProt P04070)
# Assay: APC protease inhibition assay
# Assay type: biochemical
# Conditions: not given
# Chain of APC (P04070 212-450 limits assumed): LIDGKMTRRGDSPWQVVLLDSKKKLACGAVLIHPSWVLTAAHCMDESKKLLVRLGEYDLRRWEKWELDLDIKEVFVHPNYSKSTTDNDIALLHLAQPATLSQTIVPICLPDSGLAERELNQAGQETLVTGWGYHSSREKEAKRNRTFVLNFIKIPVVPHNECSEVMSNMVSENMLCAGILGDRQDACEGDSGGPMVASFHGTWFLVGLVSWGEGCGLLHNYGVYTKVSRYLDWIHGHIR
# Chain of APC (P04070 43-197 partner limits assumed): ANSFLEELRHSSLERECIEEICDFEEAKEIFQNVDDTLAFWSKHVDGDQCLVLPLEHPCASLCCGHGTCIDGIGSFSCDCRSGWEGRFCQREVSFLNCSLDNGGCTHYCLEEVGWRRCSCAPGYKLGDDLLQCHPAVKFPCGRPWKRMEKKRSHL
row,Structure (SMILES),pIC50
1,CC(=N)N1CCC(Oc2ccc3c(c2)n(Cc2ccc4ccc(C(=N)N)cc4c2)c(=O)n3CC(=O)OCC(C)C)CC1 [Example 12],5.09
2,CC(=N)N1CCC(Oc2ccc3c(c2)n(Cc2ccc4ccc(C(=N)N)cc4c2)c(=O)n3C)CC1 [Example 6],5.12
3,CC(=N)N1CCC(Oc2ccc3[nH]c(=O)n(Cc4ccc5ccc(C(=N)N)cc5c4)c3c2)CC1 [Example 4],4.80
4,Cn1c(=O)n(Cc2ccc3ccc(C(=N)N)cc3c2)c2cc(OC3CCN(C(=N)N)CC3)ccc21 [Example 7],5.19

# Target: TPA (Homo sapiens, UniProt P00750)
# Assay: TPA protease inhibition assay
# Assay type: biochemical
# Conditions: not given
# Chain of TPA (P00750 36-562, species assumed): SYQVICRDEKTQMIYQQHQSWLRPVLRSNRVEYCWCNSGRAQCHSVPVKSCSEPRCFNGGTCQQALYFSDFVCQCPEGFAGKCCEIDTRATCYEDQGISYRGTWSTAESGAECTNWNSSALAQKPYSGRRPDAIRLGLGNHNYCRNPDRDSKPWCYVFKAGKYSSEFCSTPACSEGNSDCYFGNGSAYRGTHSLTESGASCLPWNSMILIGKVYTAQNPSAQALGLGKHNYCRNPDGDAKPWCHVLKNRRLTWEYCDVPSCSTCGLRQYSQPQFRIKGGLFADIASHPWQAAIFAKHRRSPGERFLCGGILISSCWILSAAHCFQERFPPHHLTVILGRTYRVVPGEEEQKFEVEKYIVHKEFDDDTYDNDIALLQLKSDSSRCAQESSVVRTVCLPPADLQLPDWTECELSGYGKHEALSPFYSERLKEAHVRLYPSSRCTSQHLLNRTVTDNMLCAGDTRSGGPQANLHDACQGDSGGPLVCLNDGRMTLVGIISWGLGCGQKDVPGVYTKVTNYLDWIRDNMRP
row,Structure (SMILES),pIC50
1,CC(=N)N1CCC(Oc2ccc3c(c2)n(Cc2ccc4ccc(C(=N)N)cc4c2)c(=O)n3CC(=O)OCC(C)C)CC1 [Example 12],4.27
2,CC(=N)N1CCC(Oc2ccc3c(c2)n(Cc2ccc4ccc(C(=N)N)cc4c2)c(=O)n3C)CC1 [Example 6],4.44
3,CC(=N)N1CCC(Oc2ccc3[nH]c(=O)n(Cc4ccc5ccc(C(=N)N)cc5c4)c3c2)CC1 [Example 4],4.00
4,Cn1c(=O)n(Cc2ccc3ccc(C(=N)N)cc3c2)c2cc(OC3CCN(C(=N)N)CC3)ccc21 [Example 7],4.50

# Target: factor Xa (Homo sapiens, UniProt P00742)
# Assay: factor Xa amidolytic assay (XA)
# Assay type: biochemical
# Conditions: substrate S-2765, pH 7.5, room temperature
# Experimental: as §1
# (§2) The factor Xa and thrombin assays were performed at room temperature, in 0.02 M Tris.HCl buffer, pH 7.5, containing 0.15 M NaCl. The rates of hydrolysis of the para-nitroanilide substrate S-2765 (Chromogenix) for factor Xa, and the substrate Chromozym TH (Boehringer Mannheim) for thrombin following preincubation of the enzyme with inhibitor for 5 minutes at room temperature, and were determined using the Softmax 96-well plate reader (Molecular Devices), monitored at 405 nm to measure the time dependent appearance of p-nitroaniline.
# Chain of factor Xa (P00742 235-488 limits assumed): as the sequence (P00742 235-488 limits assumed) above
# Chain of factor Xa (P00742 41-179 partner limits assumed): as the sequence (P00742 41-179 partner limits assumed) above
row,Structure (SMILES),pIC50
1,CCn1c(Cn2c(=O)[nH]c3ccc(OC4CCN(C(=N)N)CC4)cc32)cc2ccc(C(=N)N)cc21 [Example 18],5.75
2,CCn1c(Cn2c(=O)[nH]c3ccc(OC4CCN(C(C)=N)CC4)cc32)cc2ccc(C(=N)N)cc21 [Example 17],4.85
3,CC(=N)N1CCC(Oc2ccc3c(c2)n(Cc2ccc4ccc(C(=N)N)cc4c2)c(=O)n3CC(=O)OCC(C)C)CC1 [Example 12],7.97
4,CC(=N)N1CCC(Oc2ccc3c(c2)n(Cc2ccc4ccc(C(=N)N)cc4c2)c(=O)n3C)CC1 [Example 6],7.57
5,CC(=N)N1CCC(Oc2ccc3[nH]c(=O)n(Cc4ccc5ccc(C(=N)N)cc5c4)c3c2)CC1 [Example 4],7.69
6,Cn1c(=O)n(Cc2ccc3ccc(C(=N)N)cc3c2)c2cc(OC3CCN(C(=N)N)CC3)ccc21 [Example 7],7.49

# Target: PLASMIN (Homo sapiens, UniProt P00747)
# Assay: plasmin protease inhibition assay
# Assay type: biochemical
# Conditions: not given
# Chain of PLASMIN (P00747 581-810 limits assumed, species assumed): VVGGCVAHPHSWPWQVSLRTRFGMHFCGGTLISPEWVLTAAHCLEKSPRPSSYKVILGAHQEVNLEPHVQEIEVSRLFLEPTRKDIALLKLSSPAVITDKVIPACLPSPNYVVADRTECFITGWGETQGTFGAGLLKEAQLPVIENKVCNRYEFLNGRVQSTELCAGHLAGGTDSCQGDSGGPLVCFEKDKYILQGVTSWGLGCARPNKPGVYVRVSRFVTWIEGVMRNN
# Chain of PLASMIN (P00747 97-580 partner limits assumed, species assumed): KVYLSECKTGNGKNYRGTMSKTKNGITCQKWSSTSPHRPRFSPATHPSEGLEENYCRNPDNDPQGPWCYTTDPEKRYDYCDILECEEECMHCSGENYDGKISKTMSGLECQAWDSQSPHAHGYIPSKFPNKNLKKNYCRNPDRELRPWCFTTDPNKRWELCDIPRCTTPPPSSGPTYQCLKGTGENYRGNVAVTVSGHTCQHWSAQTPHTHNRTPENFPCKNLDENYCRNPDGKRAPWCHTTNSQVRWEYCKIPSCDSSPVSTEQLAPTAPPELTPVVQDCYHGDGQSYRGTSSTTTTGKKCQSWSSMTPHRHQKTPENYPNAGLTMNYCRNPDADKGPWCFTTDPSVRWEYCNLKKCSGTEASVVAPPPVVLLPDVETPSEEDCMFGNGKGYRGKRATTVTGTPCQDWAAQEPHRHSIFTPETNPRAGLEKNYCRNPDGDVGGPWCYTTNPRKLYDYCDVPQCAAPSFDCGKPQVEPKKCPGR
row,Structure (SMILES),pIC50
1,CC(=N)N1CCC(Oc2ccc3c(c2)n(Cc2ccc4ccc(C(=N)N)cc4c2)c(=O)n3CC(=O)OCC(C)C)CC1 [Example 12],5.37
2,CC(=N)N1CCC(Oc2ccc3c(c2)n(Cc2ccc4ccc(C(=N)N)cc4c2)c(=O)n3C)CC1 [Example 6],5.44
3,CC(=N)N1CCC(Oc2ccc3[nH]c(=O)n(Cc4ccc5ccc(C(=N)N)cc5c4)c3c2)CC1 [Example 4],5.05
4,Cn1c(=O)n(Cc2ccc3ccc(C(=N)N)cc3c2)c2cc(OC3CCN(C(=N)N)CC3)ccc21 [Example 7],5.53

# Target: T1, TRYPSIN (Bos taurus, UniProt P00760)
# T1 construct: gene PRSS1
# T1 sequence (P00760 24-246): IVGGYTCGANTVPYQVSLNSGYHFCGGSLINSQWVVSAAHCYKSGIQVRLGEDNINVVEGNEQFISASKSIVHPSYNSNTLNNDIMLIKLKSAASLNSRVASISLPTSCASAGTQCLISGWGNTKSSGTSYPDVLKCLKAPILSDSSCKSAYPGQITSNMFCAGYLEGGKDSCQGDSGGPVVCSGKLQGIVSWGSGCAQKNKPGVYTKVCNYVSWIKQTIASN
# Assay: trypsin protease inhibition assay
# Assay type: biochemical
# Conditions: not given
row,Structure (SMILES),pIC50
1,CCn1c(Cn2c(=O)[nH]c3ccc(OC4CCN(C(=N)N)CC4)cc32)cc2ccc(C(=N)N)cc21 [Example 18],6.29
2,CCn1c(Cn2c(=O)[nH]c3ccc(OC4CCN(C(C)=N)CC4)cc32)cc2ccc(C(=N)N)cc21 [Example 17],6.39
3,CC(=N)N1CCC(Oc2ccc3c(c2)n(Cc2ccc4ccc(C(=N)N)cc4c2)c(=O)n3CC(=O)OCC(C)C)CC1 [Example 12],7.09
4,CC(=N)N1CCC(Oc2ccc3c(c2)n(Cc2ccc4ccc(C(=N)N)cc4c2)c(=O)n3C)CC1 [Example 6],7.25
5,CC(=N)N1CCC(Oc2ccc3[nH]c(=O)n(Cc4ccc5ccc(C(=N)N)cc5c4)c3c2)CC1 [Example 4],6.88
6,Cn1c(=O)n(Cc2ccc3ccc(C(=N)N)cc3c2)c2cc(OC3CCN(C(=N)N)CC3)ccc21 [Example 7],7.49

# Target: thrombin (Homo sapiens, UniProt P00734)
# Assay: thrombin amidolytic assay (IIA)
# Assay type: biochemical
# Conditions: substrate Chromozym TH, pH 7.5, room temperature
# Experimental: as §1, §2
row,Structure (SMILES),pIC50
1,CCn1c(Cn2c(=O)[nH]c3ccc(OC4CCN(C(=N)N)CC4)cc32)cc2ccc(C(=N)N)cc21 [Example 18],6.52
2,CCn1c(Cn2c(=O)[nH]c3ccc(OC4CCN(C(C)=N)CC4)cc32)cc2ccc(C(=N)N)cc21 [Example 17],6.57
3,CC(=N)N1CCC(Oc2ccc3c(c2)n(Cc2ccc4ccc(C(=N)N)cc4c2)c(=O)n3CC(=O)OCC(C)C)CC1 [Example 12],3.58
4,CC(=N)N1CCC(Oc2ccc3c(c2)n(Cc2ccc4ccc(C(=N)N)cc4c2)c(=O)n3C)CC1 [Example 6],4.49
5,CC(=N)N1CCC(Oc2ccc3[nH]c(=O)n(Cc4ccc5ccc(C(=N)N)cc5c4)c3c2)CC1 [Example 4],3.54
6,Cn1c(=O)n(Cc2ccc3ccc(C(=N)N)cc3c2)c2cc(OC3CCN(C(=N)N)CC3)ccc21 [Example 7],4.61
